Test results reported in paper PMC10041561 (JID Innovations, 2022).

Columns and labels:
[1] = molecular target: T1, PTGS2 (COX-2) (Homo sapiens, UniProt P35354); experiment: PTGS2; assay type: biochemical, bovine/human; conditions: COX-2 Inhibition Mean IC50, mean of replicates 1-2 (Fig 16g)
T1 sequence (P35354 18-604): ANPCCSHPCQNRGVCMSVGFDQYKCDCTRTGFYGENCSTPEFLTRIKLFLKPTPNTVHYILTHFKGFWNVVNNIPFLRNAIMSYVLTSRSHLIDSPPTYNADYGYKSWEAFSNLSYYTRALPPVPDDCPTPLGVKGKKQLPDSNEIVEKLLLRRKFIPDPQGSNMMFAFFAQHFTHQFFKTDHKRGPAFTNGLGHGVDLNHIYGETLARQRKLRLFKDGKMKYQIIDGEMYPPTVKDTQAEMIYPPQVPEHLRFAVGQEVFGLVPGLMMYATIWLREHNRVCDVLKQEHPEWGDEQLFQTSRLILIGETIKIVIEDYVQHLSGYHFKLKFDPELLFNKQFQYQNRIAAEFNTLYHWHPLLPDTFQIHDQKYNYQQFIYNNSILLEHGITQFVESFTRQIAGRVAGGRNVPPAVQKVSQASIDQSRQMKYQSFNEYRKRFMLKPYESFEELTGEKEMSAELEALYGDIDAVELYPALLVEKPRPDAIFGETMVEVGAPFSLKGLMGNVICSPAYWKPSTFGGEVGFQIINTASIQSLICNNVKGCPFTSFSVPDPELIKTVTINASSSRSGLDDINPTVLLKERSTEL

[2] = system: reconstituted human epidermis (RHE) tissues; experiment: IL-8 levels in RHE-conditioned medium; assay type: cell-based; conditions: 48 hours
[3] = system: reconstituted human epidermis (RHE) tissues; experiment: Cortisol in RHE-conditioned medium; assay type: cell-based; conditions: 48 hours, with or without cell viability standardization
[4] = ref Jaidee et al., 2021; cited from earlier work
[5] = system: CB2 receptor; conditions: ref Vučković et al., 2018; cited from earlier work
[6] = ref Nelson et al., 2020; cited from earlier work
[7] = system: TNF-stimulated neonatal human epidermal KCs; experiment: Microarray gene expression in TNF-stimulated keratinocytes; assay type: cell-based
[8] = system: CB1 receptor; conditions: ref Vučković et al., 2018; cited from earlier work

Row | Compound | IC50 [1] [µM] | IL-8 levels in RHE-conditioned medium [2] | cortisol levels in RHE-conditioned medium [3] | stability at room temperature [4] | affinity for the CB2 receptor [5] | octanol-water partition coefficient [6] | average increase in the expression of unhealthy skin signature genes ([7]; TNF-stimulated KCs) [%] | number of genes decreased ([7]; vs TNF, FDR < 0.10 with FC < 0.80) [genes] | number of genes increased ([7]; vs TNF, FDR < 0.10 with FC > 1.25) [genes] | number of genes with altered expression ([7]; vs TNF, FDR < 0.10 with FC > 1.25 or FC < 0.80) [genes] | affinity for the CB1 receptor [8]
1 | C=C[C@@](C)(/C=C/c1ccc(O)cc1)CCC=C(C)C [BAK, bakuchiol] | 12.9 | decreased IL-8 | significantly decreased cortisol levels | – | – | – | – | – | – | – | –
2 | C=C(C)[C@@H]1CCC(C)=C[C@H]1c1c(O)cc(CCCCC)cc1O [CBD, cannabidiol] | – | – | not observed | unstable at room temperature | little affinity | high | 5 | 114 | 205 | 319 | little affinity
